Results on two compounds are retold here after patent publication US10188648B2, “Solid state forms of selexipag” (TEVA PHARMACEUTICALS INTERNATIONAL GMBH, priority 2015, dated 2019).

This data set can be described thus: solubility in aqueous medium at pH=6.7. In kind it is physicochemical.

Regarding `CC(C)N(CCCCOCC(=O)NS(C)(=O)=O)c1cnc(-c2ccccc2)c(-c2ccccc2)n1` [Form IV of Selexipag, 2-{4-[(5,6-diphenylpyrazin-2-yl)(isopropyl)amino]butoxy}-N-(methylsulfonyl)acetamide], the “solubility in aqueous medium in comparison with Form I of U.S. Pat. No. 8,791,122” value (comparison with Form I) was “enhanced solubility”. Turning to `CC(C)N(CCCCOCC(=O)NS(C)(=O)=O)c1cnc(-c2ccccc2)c(-c2ccccc2)n1` [Selexipag Form I, 2-{4-[(5,6-diphenylpyrazin-2-yl)(isopropyl)amino]butoxy}-N-(methylsulfonyl)acetamide], the “solubility in aqueous medium” value was “practically insoluble”.
